Values quoted from earlier work as cited in publication PMC9549030, “Structural basis for specific inhibition of the deubiquitinase UCHL1” (Nature Communications, 2022).
pIC50: −log10 of the molar value.

How the values were obtained:
Caspase 1 = biological target: Caspase 1; design: method as in SI-Ref-5; conditions: ref SI-Ref-5; cited from earlier work
Cathepsin K = conditions: ref SI-Ref-7; cited from earlier work
Prolyl oligopeptidase = biological target: Prolyl oligopeptidase; design: method as in SI-Ref-8; conditions: ref SI-Ref-8; cited from earlier work

CC(C)(C)[C@H](NC(=O)c1ccc(N)c(Cl)c1)C(=O)N1CCC[C@H]1C(=O)N[C@H](C#N)CC(=O)O [ML132]
pIC50 (Caspase 1): 10.64

CC(C)(F)C[C@H](N[C@@H](c1ccc(-c2ccc(S(C)(=O)=O)cc2)cc1)C(F)(F)F)C(=O)NC1(C#N)CC1 [Odanacatib]
pIC50 (Cathepsin K): 9.70

N#C[C@@H]1CCCN1C(=O)[C@@H]1CCCN1C(=O)CCCc1ccccc1 [KYP-2047]
pIC50 (Prolyl oligopeptidase): 8.41
